#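 Grown in 96-well plates, cells were treated for 48 hours with each compound at five concentrations. Insufficient inhibition: endpoint recorded as highest concentration tested. Definition used: TGI = concentration required for complete inhibition of growth.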
# Assays:
# Assay in all cases: growth of human tumour cells (NCI), 48 h
# OVCAR-4 ovarian = system: OVCAR-4 ovarian
# ACHN renal = system: ACHN renal
# EKVX NSCLC = system: EKVX NSCLC
# HL-60(TB) leukemia = system: HL-60(TB) leukemia
# A498 renal = system: A498 renal
# SNB-75 CNS = system: SNB-75 CNS
# SN12C renal = system: SN12C renal
# CCRF-CEM leukemia = system: CCRF-CEM leukemia
# RXF 393 renal = system: RXF 393 renal
# T-47D breast = system: T-47D breast
# A549 NSCLC = system: A549 NSCLC
# SK-MEL-5 melanoma = system: SK-MEL-5 melanoma
# MDA-MB-435 = system: MDA-MB-435
# SK-OV-3 ovarian = system: SK-OV-3 ovarian
# SF-539 CNS = system: SF-539 CNS
# UACC-62 melanoma = system: UACC-62 melanoma
# HCC-2998 colon = system: HCC-2998 colon
# OVCAR-5 ovarian = system: OVCAR-5 ovarian
# MDA-N = system: MDA-N
# SF-295 CNS = system: SF-295 CNS
# M14 melanoma = system: M14 melanoma
# RPMI-8226 leukemia = system: RPMI-8226 leukemia
# 786-0 renal = system: 786-0 renal
# NCI-H23 lung = system: NCI-H23 lung
# TK-10 renal = system: TK-10 renal
# U251 CNS = system: U251 CNS
# MCF7 breast = system: MCF7 breast
# HT29 colon = system: HT29 colon
# BT-549 breast = system: BT-549 breast
# SNB-19 CNS = system: SNB-19 CNS
# SK-MEL-28 melanoma = system: SK-MEL-28 melanoma
# HCT-116 colon = system: HCT-116 colon
# IGROV1 ovarian = system: IGROV1 ovarian
# MOLT-4 leukemia = system: MOLT-4 leukemia
# NCI/ADR-RES ovarian = system: NCI/ADR-RES ovarian
# HOP-92 NSCLC = system: HOP-92 NSCLC
# DU-145 prostate = system: DU-145 prostate
# HS 578T breast = system: HS 578T breast
# HCT-15 colon = system: HCT-15 colon
# KM12 colon = system: KM12 colon
# CAKI-1 renal = system: CAKI-1 renal
# SK-MEL-2 melanoma = system: SK-MEL-2 melanoma
# NCI-H460 lung = system: NCI-H460 lung
# COLO 205 colon = system: COLO 205 colon
# MDA-MB-231 breast = system: MDA-MB-231 breast
# NCI-H226 lung = system: NCI-H226 lung
# PC-3 prostate = system: PC-3 prostate
# LOX IMVI melanoma = system: LOX IMVI melanoma
# SW-620 colon = system: SW-620 colon
# UACC-257 melanoma = system: UACC-257 melanoma
# HOP-62 NSCLC = system: HOP-62 NSCLC
# MALME-3M melanoma = system: MALME-3M melanoma
# SF-268 CNS = system: SF-268 CNS
# UO-31 renal = system: UO-31 renal
# OVCAR-8 ovarian = system: OVCAR-8 ovarian
# K-562 leukemia = system: K-562 leukemia
# SR leukemia = system: SR leukemia
# NCI-H522 lung = system: NCI-H522 lung
# OVCAR-3 ovarian = system: OVCAR-3 ovarian
smiles,measurement,setting,value
COc1ccc(-c2nc3ccccc3c(=S)n2OC(C)=O)cc1,TGI,OVCAR-4 ovarian,> 25 µM
same,TGI,ACHN renal,> 25 µM
same,TGI,EKVX NSCLC,> 25 µM
same,TGI,HL-60(TB) leukemia,17.2 µM
same,TGI,A498 renal,> 25 µM
same,TGI,SNB-75 CNS,> 25 µM
same,TGI,SN12C renal,> 25 µM
same,TGI,CCRF-CEM leukemia,> 25 µM
same,TGI,RXF 393 renal,> 25 µM
same,TGI,T-47D breast,> 25 µM
same,TGI,A549 NSCLC,> 25 µM
same,TGI,SK-MEL-5 melanoma,> 25 µM
same,TGI,MDA-MB-435,> 25 µM
same,TGI,SK-OV-3 ovarian,> 25 µM
same,TGI,SF-539 CNS,> 25 µM
same,TGI,UACC-62 melanoma,> 25 µM
same,TGI,HCC-2998 colon,> 25 µM
same,TGI,OVCAR-5 ovarian,> 25 µM
same,TGI,MDA-N,> 25 µM
same,TGI,SF-295 CNS,> 25 µM
same,TGI,M14 melanoma,> 25 µM
same,TGI,RPMI-8226 leukemia,> 25 µM
same,TGI,786-0 renal,> 25 µM
same,TGI,NCI-H23 lung,> 25 µM
same,TGI,TK-10 renal,> 25 µM
same,TGI,U251 CNS,> 25 µM
same,TGI,MCF7 breast,> 25 µM
same,TGI,HT29 colon,> 25 µM
same,TGI,BT-549 breast,> 25 µM
same,TGI,SNB-19 CNS,> 25 µM
same,TGI,SK-MEL-28 melanoma,> 25 µM
same,TGI,HCT-116 colon,> 25 µM
same,TGI,IGROV1 ovarian,> 25 µM
same,TGI,MOLT-4 leukemia,> 25 µM
same,TGI,NCI/ADR-RES ovarian,> 25 µM
same,TGI,HOP-92 NSCLC,> 25 µM
same,TGI,DU-145 prostate,> 25 µM
same,TGI,HS 578T breast,> 25 µM
same,TGI,HCT-15 colon,> 25 µM
same,TGI,KM12 colon,> 25 µM
same,TGI,CAKI-1 renal,> 25 µM
same,TGI,SK-MEL-2 melanoma,> 25 µM
same,TGI,NCI-H460 lung,> 25 µM
same,TGI,COLO 205 colon,> 25 µM
same,TGI,MDA-MB-231 breast,> 25 µM
same,TGI,NCI-H226 lung,> 25 µM
same,TGI,PC-3 prostate,> 25 µM
same,TGI,LOX IMVI melanoma,> 25 µM
same,TGI,SW-620 colon,> 25 µM
same,TGI,UACC-257 melanoma,> 25 µM
same,TGI,HOP-62 NSCLC,> 25 µM
same,TGI,MALME-3M melanoma,20.4 µM
same,TGI,SF-268 CNS,> 25 µM
same,TGI,UO-31 renal,> 25 µM
same,TGI,OVCAR-8 ovarian,> 25 µM
same,TGI,K-562 leukemia,> 25 µM
COc1ccc(N2C(=O)C3c4[nH]c5cc(C)ccc5c4C4CCC(C(C)(C)C)CC4C3C2=O)cc1 (stereo unspecified),TGI,OVCAR-4 ovarian,> 10 µM
same,TGI,ACHN renal,> 10 µM
same,TGI,EKVX NSCLC,> 10 µM
same,TGI,HL-60(TB) leukemia,> 10 µM
same,TGI,A498 renal,> 10 µM
same,TGI,SNB-75 CNS,6.07 µM
same,TGI,SR leukemia,> 10 µM
same,TGI,SN12C renal,> 10 µM
same,TGI,CCRF-CEM leukemia,> 10 µM
same,TGI,RXF 393 renal,> 10 µM
same,TGI,T-47D breast,> 10 µM
same,TGI,A549 NSCLC,> 10 µM
same,TGI,SK-MEL-5 melanoma,> 10 µM
same,TGI,MDA-MB-435,> 10 µM
same,TGI,SK-OV-3 ovarian,> 10 µM
same,TGI,SF-539 CNS,> 10 µM
same,TGI,UACC-62 melanoma,> 10 µM
same,TGI,HCC-2998 colon,> 10 µM
same,TGI,OVCAR-5 ovarian,> 10 µM
same,TGI,MDA-N,> 10 µM
same,TGI,SF-295 CNS,> 10 µM
same,TGI,M14 melanoma,> 10 µM
same,TGI,RPMI-8226 leukemia,> 10 µM
same,TGI,NCI-H23 lung,> 10 µM
same,TGI,TK-10 renal,> 10 µM
same,TGI,NCI-H522 lung,> 10 µM
same,TGI,U251 CNS,> 10 µM
same,TGI,MCF7 breast,> 10 µM
same,TGI,HT29 colon,> 10 µM
same,TGI,SNB-19 CNS,> 10 µM
same,TGI,SK-MEL-28 melanoma,> 10 µM
same,TGI,HCT-116 colon,> 10 µM
same,TGI,IGROV1 ovarian,> 10 µM
same,TGI,MOLT-4 leukemia,> 10 µM
same,TGI,NCI/ADR-RES ovarian,> 10 µM
same,TGI,DU-145 prostate,> 10 µM
same,TGI,HS 578T breast,> 10 µM
same,TGI,HCT-15 colon,> 10 µM
same,TGI,KM12 colon,> 10 µM
same,TGI,CAKI-1 renal,> 10 µM
same,TGI,SK-MEL-2 melanoma,> 10 µM
same,TGI,NCI-H460 lung,> 10 µM
same,TGI,COLO 205 colon,> 10 µM
same,TGI,MDA-MB-231 breast,> 10 µM
same,TGI,NCI-H226 lung,> 10 µM
same,TGI,PC-3 prostate,> 10 µM
same,TGI,OVCAR-3 ovarian,> 10 µM
same,TGI,LOX IMVI melanoma,> 10 µM
same,TGI,SW-620 colon,> 10 µM
same,TGI,HOP-62 NSCLC,> 10 µM
same,TGI,MALME-3M melanoma,> 10 µM
same,TGI,SF-268 CNS,> 10 µM
same,TGI,UO-31 renal,> 10 µM
same,TGI,OVCAR-8 ovarian,> 10 µM
same,TGI,K-562 leukemia,> 10 µM

# From PubChem BioAssay (NCI)
